Test results reported in article PMC8467848 (Molecules, 2021).
Where a name gives a salt, the structure may show the parent alone. Blank lines part the entries; values can stand above or below the compound they belong to.

Assays:
[1] = target: T1, μ-opioid receptor (Mus musculus, UniProt P42866); assay: biochemical; type: binding
T1 construct: performed on mouse brain homogenates in the presence of ^3H-DAMGO for μ-receptor; from tissue; host or cells: mouse brain membranes / homogenates

[2] = target: T2, δ-opioid receptor (Mus musculus, UniProt P32300); assay: biochemical; type: binding
T2 construct: performed on mouse brain homogenates; from tissue; host or cells: mouse brain membranes / homogenates

[3] = target: T3, κ-opioid receptor (Mus musculus, UniProt P33534); assay: biochemical; type: binding
T3 construct: performed on mouse brain homogenates; from tissue; host or cells: mouse brain membranes / homogenates
T3 sequence (P33534 whole entry): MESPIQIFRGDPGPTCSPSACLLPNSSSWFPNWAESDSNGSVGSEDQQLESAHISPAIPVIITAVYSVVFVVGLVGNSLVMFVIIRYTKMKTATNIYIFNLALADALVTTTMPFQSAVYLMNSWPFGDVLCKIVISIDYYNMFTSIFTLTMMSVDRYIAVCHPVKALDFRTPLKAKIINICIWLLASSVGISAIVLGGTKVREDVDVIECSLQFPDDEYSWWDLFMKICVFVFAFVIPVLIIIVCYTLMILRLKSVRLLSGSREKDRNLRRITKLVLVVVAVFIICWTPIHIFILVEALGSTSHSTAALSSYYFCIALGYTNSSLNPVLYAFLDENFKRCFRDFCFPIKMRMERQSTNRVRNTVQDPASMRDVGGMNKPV

T2 sequence (P32300 whole entry): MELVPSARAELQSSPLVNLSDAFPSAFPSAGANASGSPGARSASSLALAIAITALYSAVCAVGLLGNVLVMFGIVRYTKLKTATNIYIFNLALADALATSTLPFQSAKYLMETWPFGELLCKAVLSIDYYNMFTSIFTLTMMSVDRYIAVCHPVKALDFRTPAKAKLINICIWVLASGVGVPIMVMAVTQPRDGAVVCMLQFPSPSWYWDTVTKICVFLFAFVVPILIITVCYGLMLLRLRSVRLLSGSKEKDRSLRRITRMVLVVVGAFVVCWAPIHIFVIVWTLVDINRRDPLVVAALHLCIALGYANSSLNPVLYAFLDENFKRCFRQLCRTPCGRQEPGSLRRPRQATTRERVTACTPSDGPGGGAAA
T1 sequence (P42866 whole entry): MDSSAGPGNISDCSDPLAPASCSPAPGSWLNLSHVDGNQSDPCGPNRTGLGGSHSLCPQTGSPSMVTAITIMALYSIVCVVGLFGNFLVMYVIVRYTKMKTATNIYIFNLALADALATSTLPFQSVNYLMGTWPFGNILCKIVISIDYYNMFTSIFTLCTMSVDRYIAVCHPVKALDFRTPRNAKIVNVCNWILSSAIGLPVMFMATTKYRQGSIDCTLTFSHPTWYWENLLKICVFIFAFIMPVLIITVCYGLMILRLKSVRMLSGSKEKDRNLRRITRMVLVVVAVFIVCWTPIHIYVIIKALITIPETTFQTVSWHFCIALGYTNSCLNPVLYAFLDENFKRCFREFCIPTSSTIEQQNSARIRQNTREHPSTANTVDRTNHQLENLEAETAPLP

melting point: 132 to 134 °C
SMILES: CCC(=O)N1C2CCC1C1CCC2N1CC=C1CCc2ccccc21 (as salt: hydrochloride)

melting point: 181 to 183 °C
SMILES: CCC(=O)N1C2CCC1C1CCC2N1CC=C1CCc2cc(F)ccc21 (as salt: hydrochloride)

melting point: 170 to 173 °C
SMILES: CCC(=O)N1C2CCC1C1CCC2N1CC=C1CCc2cc(Cl)ccc21 (as salt: hydrochloride)

melting point: 167 to 170 °C
SMILES: CCC(=O)N1C2CCC1C1CCC2N1CC=C1CCc2cc(Br)ccc21 (as salt: hydrochloride)

melting point: 167 to 170 °C
SMILES: CCC(=O)N1C2CCC3C1CCC2N3CC=C1CCc2ccccc21 (as salt: hydrochloride)

melting point: 179 to 181 °C
SMILES: CCC(=O)N1C2CCC3C1CCC2N3CC=C1CCc2cc(Cl)ccc21 (as salt: hydrochloride)

melting point: 177 to 179 °C
SMILES: CCC(=O)N1C2CCC3C1CCC2N3CC=C1CCc2cc(Br)ccc21 (as salt: hydrochloride)

melting point: 131 to 133 °C
SMILES: CCC(=O)N1C2CCC3C1CCC2N3CC=C1CCc2cc(F)ccc21 (as salt: hydrochloride) [Compound 25, 2-Propionyl-7-[(E)-1-(2-(5-fluoro-2,3-dihydro-1H-inden-1-ylidene)ethyl]-2,7-diazatricyclo[4.2.0.0^3,8]decane]

The remaining lines, values behind:

SMILES: CCC(=O)N1C2CCC1C1CCC2N1Cc1cc2ccccc2[nH]1 (as salt: hydrochloride) [Compound 53, 9-Propionyl-10-(1H-indol-2-ylmethyl)-9, 10-diazatricyclo[4.2.1.1^2.5]decane]
melting point: 106 °C

SMILES: CCC(=O)N1C2CCC3C1CCC2N3Cc1cc2ccccc2[nH]1 (as salt: hydrochloride) [Compound 54, 2-Propionyl-7-(1H-indol-2-ylmethyl)-2,7-diazatricyclo[4.4.0.0^3.8]decane]
melting point: 54 °C

SMILES: CCC(=O)N1C2CCC1C1CCC2N1Cc1cnc2ccccc2n1 (as salt: hydrochloride) [Compound 59, 9-Propionyl-10-(quinoxalyn-2-ylmethyl)-9,10-diazatricyclo[4.2.1.1^2,5]decane]
melting point: 128 °C

SMILES: CCC(=O)N1C2CCC1C1CCC2N1Cc1cc2ccccc2[nH]1 [Compound 53, 9-Propionyl-10-(1H-indol-2-ylmethyl)-9, 10-diazatricyclo[4.2.1.1^2.5]decane]
Ki [1]: 22 ± 3 nM | μ-affinity / binding in words [1]: nanomolar range | Ki [2]: > 1000 nM | affinity towards δ-receptors in words [2]: negligible affinity | Ki [3]: > 1000 nM | affinity towards κ-receptors in words [3]: negligible affinity

SMILES: CCC(=O)N1C2CCC3C1CCC2N3Cc1cc2ccccc2[nH]1 [Compound 54, 2-Propionyl-7-(1H-indol-2-ylmethyl)-2,7-diazatricyclo[4.4.0.0^3.8]decane]
Ki [1]: 500 ± 45 nM | fold lower μ-affinity compared to its isomer [1]: 23 fold | Ki [2]: > 1000 nM | Ki [3]: > 1000 nM

SMILES: CCC(=O)N1C2CCC3C1CCC2N3Cc1ccc2ccccc2n1 [Compound 58, 2-Propionyl-7-(quinolyn-2-ylmethyl)-2,7-diazatricyclo[4.2.0.0^3,8]decane]
Ki [1]: 490 ± 46 nM | Ki [2]: > 1000 nM | Ki [3]: > 1000 nM

SMILES: CCC(=O)N1C2CCC1C1CCC2N1Cc1cnc2ccccc2n1 [Compound 59, 9-Propionyl-10-(quinoxalyn-2-ylmethyl)-9,10-diazatricyclo[4.2.1.1^2,5]decane]
Ki [1]: > 1000 nM | Ki [2]: > 1000 nM | Ki [3]: > 1000 nM
